From paper PMC8876931, “Pharmacokinetic, Metabolomic, and Stability Assessment of Ganoderic Acid H Based Triterpenoid Enriched Fraction of Ganoderma lucidum P. Karst” (Metabolites, 2022)

How the values were obtained:
[1] = In vivo pattern recognition of TEF: UPLC–MS metabolic profiling of blood after oral administration; parameters: species or system rats; conditions: for bioavailability (absorbed in systemic circulation) of TEF constituent: after oral administration of TEF to rats, in words; for Metabolites Pattern in TEF and Blood (Abundance): UPLC–MS abundance of mass
Procedure: For in vivo pattern recognition of TEF, it was orally administered to rats. After its oral administration, blood samples were collected at different time intervals. Prepared plasma samples of pharmacokinetic analysis (0.5, 1, 3, 6, 12, 24, 48, and 72 h) were used for this study. Samples were analyzed by ultra-performance liquid chromatography–mass spectrometry (UPLC–MS) analysis. The UPLC–MS was performed on Water’s ACQUITY UPLCTM system (Waters Corp., Milford, MA, USA) equipped with a binary solvent delivery system, an autosampler, column manager, and a tunable MS detector (Synapt; Waters, Manchester, UK). Chromatographic separation was performed on a Water’s ACQUITY UPLC^TM BEH C18 (100.0 × 2.1 mm × 1.7 μm) column. The mobile phase used for chromatographic separation was 0.05% (v/v) formic acid in water (A) and 0.05% (v/v) formic acid in acetonitrile (B). […] The flow rate of mobile phase was 0.5 mL/min, and column temperature was set at 25 °C throughout the run time. The mass spectrometry was performed on a quadrupole orthogonal acceleration time of flight tandem mass spectrometer (Waters Q-TOF, Manchester, UK). The nebulizer gas was set to 500 L/h, the cone gas was set to 50 L/h, and the source temperature was set to 100 °C. The capillary voltage was set to 3.0 kV, and the sample cone voltage was set to […]. Argon was employed as the collision gas at a pressure of 5.3 × 10^−5 Torr. The Q-TOF was operated in positive mode with […] and 0.02 s inter-scan delay. The accurate mass and composition for the precursor ions and the fragment ions were calculated by using MassLynx v 4.1 software incorporated with the instrument. Compounds were tentatively identified from database by comparing their reported m/z values with experimental values. Focus was given to the mass ranges from 130 to 600 m/z for lanosterol type triterpenoids and general terpene hydrocarbon. The databases used for identification of compounds were MassBank and HMDB.
Metabolomic comparison was performed with respect to analysis of TEF. For that, dried TEF was dissolved in LC–MS grade methanol and analyzed with same conditions used for plasma sample analysis. […] This metabolomic analysis was based on metabolites absorbed in blood after oral administration.

breast cancer cells = system: breast cancer cells; parameters: method as in PMID 18425349; conditions: by modulating AP-1 and NF-κB signaling; cited from earlier work
[2] = Pharmacokinetic analysis of TEF in terms of GA-H after oral administration to rats (HPLC of plasma and urine); type: in vivo, Albino Wistar rats; parameters: rate of elimination (Kel): unit not given here
Procedure: Alliance HPLC system (e2695 Separation module, Waters, Milford, MA, USA) with a gradient pump integrated with adjustable wavelength programmable photodiode array detector (PDA) was employed for analysis. Chromatographic separation was executed on Hupersil […] C18 (ODS) column (150 × 4.6 mm, Phenomenex, Torrance, CA, USA), using mobile phase composed of 0.5% v/v formic acid in water (A) and methanol (B). Solvents were eluted at a flow rate of 1.0 mL/min in gradient elution program (initially 100% A, 0–5 min 90% A, 5–10 min 70% A, 10–15 min 30% A, 15–20 min 2% A, and 20–22 min 100% A). Detection was carried out in a scanning mode with 3D channel at a wavelength of 254 nm. Total run time was 25 min. The identity of the compounds was established by comparing retention time of analytical standards. The proposed developed method was further validated as per the AOAC guidelines.
Albino Wistar rats (8 weeks old, 180 ± 20 g) were obtained from the Central Animal House Facility of Jamia Hamdard. Animal housing and handling were executed in accordance with the Good Laboratory Practice (GLP) mentioned in CPCSEA guidelines. All experimental protocols were reviewed and approved by the Institutional Animal Ethics Committee (Registration No 173/GO/RE/S/2000/CPCSEA; approval number 1472). All animals were housed in polypropylene cages (not more than three animals per cage) with proper water and feed and were allowed to acclimatize with specified conditions (25 ± 3 °C and 60 ± 5%RH) for a week before the experiment. […] After oral administration, blood samples were collected from retro-orbital plexus by using heparinized capillaries at 0 (pre-dose), 0.5, 1, 1.5, 2, 4, 6, 8, 10, 12, 16, 24, and 30 h. Blood samples were collected in EDTA tubes and centrifuged at 7000 rpm to get plasma. The separated plasma was stored at −60 °C until analysis. […] The collected urine from each animal was pooled for analysis.
Liquid–liquid extraction was used for extraction of GA-H from plasma. In 100 µL of plasma, 500 µL of ice-cold methanol was added, vortexed, and incubated at −60 °C for 8 h. After incubation, it was brought to room temperature and centrifuged at 10,000 rpm for 10 min. The supernatant was separated and dried by passing […]. The dried extract was re-suspended with 100 μL of LC–MS grade methanol, sonicated for 10 min, centrifuged at 14,000 rpm for 10 min, supernatant separated, and then transferred into sample vials having insert for analysis. Similar sample preparation protocol and storage conditions were used for urine through liquid–liquid extraction.
The maximum plasma concentration (Cmax) and time to attain maximum concentration (Tmax) were directly assessed by plasma concentration–time graph. Other pharmacokinetic parameters, such as AUC, AUC0–t, AUC0–∞, half-life (t1/2), elimination rate constant (Kel), and volume of distribution (Vd), were calculated from plasma concentration vs. time profile response curve by non-compartmental analysis, using software Pkf Excel plug-in program.

[3] = blood 3 h after oral TEF to rats
[4] = blood 6 h after oral TEF to rats
[5] = blood 12 h after oral TEF to rats
[6] = blood 24 h after oral TEF to rats
[7] = blood 48 h after oral TEF to rats
[8] = blood 72 h after oral TEF to rats
[9] = blood 0.5 h after oral TEF to rats
[10] = blood 1 h after oral TEF to rats
[11] = Albino Wistar, rat, plasma, po, 85 mg/kg
[12] = GA-H in rat plasma after oral TEF 85 mg/Kg
[13] = GA-H, rats, oral TEF 85 mg/Kg, non-compartmental analysis

SMILES	bioavailability (absorbed in systemic circulation) of TEF constituent [1]	Metabolites Pattern in TEF and Blood (Abundance) [1, 3]	Metabolites Pattern in TEF and Blood (Abundance) [1, 4]	Metabolites Pattern in TEF and Blood (Abundance) [1, 5]	Metabolites Pattern in TEF and Blood (Abundance) [1, 6]	Metabolites Pattern in TEF and Blood (Abundance) [1, 7]	Metabolites Pattern in TEF and Blood (Abundance) [1, 8]	Metabolites Pattern in TEF and Blood (Abundance) [1, 10]	effect on growth and invasive behavior of breast cancer cells (breast cancer cells)	further results
CC(C)CCCCCCCCCCCC(=O)O [13-methylmyristic acid]	bioavailable	23,412	25,473	21,675	16,734	9835	5642	–	–	–
OC[C@H]1OC(c2c(O)cc3c(c2O)C[C@@H](O)[C@@H](c2ccc(O)c(O)c2)O3)[C@H](O)[C@@H](O)[C@@H]1O (some centres unmarked) [Epicatechin-6-glucoside]	bioavailable	25,056	26,578	22,346	21,324	24,569	22,345	36,783	–	Metabolites Pattern in TEF and Blood (Abundance) [1, 9]: 19,876
CC(=O)O[C@@H]1C(=O)C2=C(C(=O)C[C@H]3C(C)(C)C(=O)CC[C@]23C)[C@]2(C)C(=O)C[C@H]([C@H](C)CC(=O)CC(C)C(=O)O)[C@@]12C (some centres unmarked) [GA-F, ganoderic acid F]	–	–	–	–	–	–	–	–	suppress the growth and invasive behavior	–
CC(=O)O[C@@H]1C(=O)C2=C(C(=O)C[C@H]3C(C)(C)[C@@H](O)CC[C@]23C)[C@]2(C)C(=O)C[C@H]([C@H](C)CC(=O)CC(C)C(=O)O)[C@@]12C (some centres unmarked) [GA-H, ganoderic acid H]	–	54,675	32,456	24,978	–	–	–	45,675	suppress the growth and invasive behavior	Metabolites Pattern in TEF and Blood (Abundance) [1, 9]: 35,876; AUC(0-inf) [2, 11]: 9840 ± 157 ng·h/mL; AUC(0-t) [2, 11]: 9800 ± 170 ng·h/mL; half-life ([2]; Albino Wistar, rat, plasma, po, 85 mg/kg, read-out: half-life in blood (converted)): 791 min; Cmax ([2]; Albino Wistar, rat, plasma, po, 85 mg/kg, read-out: maximum plasma concentration (Cmax)): 2510 ng/mL; MRT ([2]; Albino Wistar, rat, plasma, po, 85 mg/kg, read-out: mean residence time in blood): 5.42 h; relative exposure AUC0–∞/D [2, 12]: 1968.9 ± 32.5 ng·h/mL/mg; relative exposure Cmax/D [2, 12]: 501.9 ± 25.4 ng/mL/mg; time to peak plasma concentration (Tmax) [2, 12]: approximately one; time up to which a quantifiable amount was sustained in plasma ([2]; GA-H, rats, oral TEF): up to 12 h; rate of elimination (Kel) ([2]; GA-H, rats, oral TEF 85 mg/Kg): 0.05; clearance (CL) [2, 13]: 507.9 ± 25.6 mL/h; volume of distribution (Vd) [2, 13]: 9660.3 ± 111.5 mL; detection in urine ([2]; rat urine collected at 4, 12 and 24 h after oral TEF, pooled): no GA-H was detected
C[C@H](CC(=O)C[C@@H](C)[C@H]1C[C@H](O)[C@@]2(C)C3=C(C(=O)C[C@]12C)[C@@]1(C)CCC(=O)C(C)(C)[C@@H]1C[C@@H]3O)C(=O)O [Ganoderic acid A]	bioavailable	37,652	29,143	22,987	21,548	–	–	45,647	suppress the growth and invasive behavior	–
CC(CC(=O)C[C@@H](C)[C@H]1CC(=O)[C@@]2(C)C3=C(C(=O)C[C@]12C)[C@@]1(C)CCC(=O)C(C)(C)[C@@H]1C[C@@H]3O)C(=O)O (some centres unmarked) [Ganoderic acid D]	–	37,654	27,689	26,657	21,234	–	–	36,786	–	–
NC(=O)CC[C@H](N=C/C=C1/C=C(C(=O)O)N[C@H](C(=O)O)C1)C(=O)O [Glutamine-betaxanthin]	absorbed in the systemic circulation	–	–	–	–	–	–	–	–	–
CCCCC/C=C\C/C=C\CCCCCCCC(=O)O [Linoleic acid]	bioavailable	23,451	21,543	18,756	12,112	8453	5641	–	–	–
